According to PubChem BioAssay AID2423 (Broad Institute, 2010):
Values joined by “and” are separate entries in the source; they are usually repeats but may differ in a detail not shown here. Equal entries are not always repeated. Results filed as inconclusive are left out. Active and inactive are the calls of the source. No rule for the calls is given here.

The compounds below were run on C. albicans CaCi-8 + fluconazole, Alamar Blue growth, 48 h (assay: resistant C. albicans growth inhibition with fluconazole, dose response, CaCi-8 strain, Alamar Blue fluorescence (AID 2423)).
`COc1cc(C2C(C#N)=C(N)N(c3ccc(F)cc3)C3=C2S(=O)(=O)CC3)ccc1O` (centres undefined) was tested, and the EC50 was > 16000 nM (inactive). `CCN(CC)c1ccc(/C=N/Nc2nc3ccccc3[nH]2)cc1` showed an EC50 of 870 nM. `O=C(Nc1ccccc1Cl)c1ccc([N+](=O)[O-])o1` was tested, and the EC50 was 693 nM. With `Cc1ccc(C(=O)NC(=S)NNC(=O)c2ccccc2[N+](=O)[O-])cc1` the EC50 was > 15000 nM (inactive). Work on `O=[N+]([O-])c1cc(/C=N/Nc2nc3ccccc3[nH]2)c(O)cc1O` yielded an EC50 of 6220 nM. `COc1ccc(Cl)cc1C(Nc1cccnc1)c1ccc2cccnc2c1O` (centres undefined) was tested, and the EC50 was 1020 nM. In the case of `CNC(=O)COC(=O)c1c2c(nc3ccccc13)CCC2`, the EC50 is reported as > 16000 nM (inactive). For `Cc1onc(-c2ccccc2)c1C(=O)NC(=S)NNC(=O)c1cccnc1`, the EC50 was > 16000 nM (inactive). `Nc1nsc2ccccc12` was tested, and the EC50 was > 15000 nM (inactive). With `N#C/C(=C(/O)COc1ccc(Cl)cc1)c1nc2ccccc2s1` the EC50 was > 15000 nM (inactive). Work on `O=C(O)CCCCCn1c(O)c(C=C2N=c3ccccc3=N2)sc1=S` yielded an EC50 of 1640 nM. In the case of `CON/C=C(\C=Nc1ccc(Cl)cc1Cl)c1ncc(C(F)(F)F)cc1Cl`, the EC50 is reported as > 16000 nM (inactive). `O=C(Nc1ccccc1N1CCOCC1)c1ccc(S(=O)(=O)NCc2ccco2)cc1` was tested, and the EC50 was > 15000 nM (inactive). For `CSc1ccc(C2c3[nH]c4ccccc4c3CCN2C(=O)c2ccnn2C)cc1` (centres undefined), the EC50 was 2350 nM. For `C/C(CC(C)(C)C1CCCCC1)=N\NC(N)=S`, the EC50 was > 16000 nM (inactive). In the case of `O=[N+]([O-])c1ccc(C2CCCC/C2=N/OCc2ccc(F)cc2)c([N+](=O)[O-])c1` (centres undefined), the EC50 is reported as > 16000 nM (inactive). Compound `Cc1nc(-n2[nH]c3c(c2=O)CCCC3)[nH]c(=O)c1Cc1ccccc1` has an EC50 of 541 nM. Compound `COc1ccc(OC)c(NC(=O)c2c3c(nc4ccccc24)CCC3)c1` has an EC50 of 6600 nM. For `CC1=C(CC[C@@H](C)CO)OC2CC3C4CCC5CC(O)CCC5(C)C4CC(=O)C3(C)C12` (some centres undefined), the EC50 was 135 nM. `Cc1nnc(NC(=O)CSc2ncnc3c2cnn3-c2ccccc2C)s1` was tested, and the EC50 was 446 nM. Compound `Cc1c(CCOC(=O)CC23CC4CC(CC(C4)C2)C3)sc[n+]1Cc1ccccc1` has an EC50 of 10600 nM. Work on `O=C(Nc1ccc(F)c(Cl)c1)NC1CC1` yielded an EC50 of 1490 nM. Compound `COc1ccc(-c2cc(=O)oc3cc(OC(=O)C4CCCCC4)c(Cl)cc23)cc1` has an EC50 of 1120 nM. Compound `Cc1cc(C(=O)NNC(=S)NC(C)c2ccccc2)c2ccccc2n1` (centres undefined) has an EC50 of 3090 nM. `Cc1cc(Nc2ccccc2)nc(NCc2ccccc2)n1` showed an EC50 of 3350 nM. `CCCC(=O)NC(c1ccccc1)c1ccc2cccnc2c1O` (centres undefined) showed an EC50 of 783 nM. In the case of `O=C(NNC(=S)NC(=O)c1ccccc1[N+](=O)[O-])c1ccc(Cl)cc1Cl`, the EC50 is reported as 1870 nM. `Cc1nc(SCc2ccc(Cl)c(Cl)c2)ncc1C(=O)O` was tested, and the EC50 was > 15000 nM (inactive). Compound `COc1ccc(-n2nc(C(=O)NCC(=O)N3CCN(c4ccccc4)CC3)c3ccccc3c2=O)c(OC)c1` has an EC50 of 698 nM. With `Cc1nc2ccc(NC(=O)COc3ccccc3)cc2s1` the EC50 was 5370 nM. `Cc1ccc2cc(C3C(C#N)=C(N)Oc4c3ccc3cccnc43)c(=O)[nH]c2c1` (centres undefined) gave an EC50 of 1900 nM. Work on `O=C(Nc1ccccc1N1CCOCC1)c1cc(F)cc(F)c1` yielded an EC50 of 2660 nM. With `Cc1ccc(Cn2nnc3c(=O)[nH]c(C4CCN(S(=O)(=O)c5ccc(C)cc5)CC4)nc32)cc1` the EC50 was > 15000 nM (inactive). `CC(C)(C)C1CCC(OC(=O)C[N+]2(C)CCCCC2)CC1` (centres undefined) was tested, and the EC50 was 11300 nM. For `O=C(NNC(=S)NC(=O)c1ccc(Br)cc1)c1ccc([N+](=O)[O-])cc1`, the EC50 was 416 nM. In the case of `Oc1c(C(Nc2nccs2)c2ccc(C(F)(F)F)cc2)ccc2cccnc12` (centres undefined), the EC50 is reported as 601 nM. With `Cc1cc(C)c(-c2cc(NC(=O)COC(=O)c3ccc(C#N)cc3)n(-c3ccccc3)n2)cc1C` the EC50 was 397 nM. In the case of `Cc1ccc(-n2[nH]c(C)c(/C=N/NC(=O)c3ccc([N+](=O)[O-])cc3)c2=O)c(C)c1`, the EC50 is reported as 3530 nM. With `CCCCn1c(SCC(=O)Nc2cccc(OC)c2)nc2ccc(N3CCOCC3)cc2c1=O` the EC50 was 3630 nM. In the case of `CC[n+]1c(/C=C/N(C)c2ccccc2)sc2ccc(Cl)cc21`, the EC50 is reported as 3150 nM. `O=C(NNC1=C(C(=O)C(F)(F)F)CCC1)c1ccc(Cl)cc1` gave an EC50 of 1040 nM. With `Cc1ccc2occ(/C=N/NC(=O)c3ccccc3O)c(=O)c2c1` the EC50 was 15100 nM. For `Cc1cccc(Cc2nnc(CCC(=O)N3CCCCC3c3nccs3)o2)c1` (centres undefined), the EC50 was > 16000 nM (inactive). `C=CCOC(=O)c1sc(NC(=O)c2ccco2)nc1C` gave an EC50 of 348 nM. For `O=C(N/N=C/c1cc([N+](=O)[O-])ccc1O)/C(=C\c1cccs1)NC(=O)c1ccccc1`, the EC50 was 3590 nM. `CC1(C)CC(N2CCCC2)=CC(=[N+]2CCCC2)C1` showed an EC50 of 6310 nM. In the case of `COC(=O)Cn1nc(-c2ccccc2)c2ccccc21`, the EC50 is reported as 2280 nM. With `Cc1ccc(C(=O)NC(=O)OCCn2c(C)cnc2[N+](=O)[O-])cc1` the EC50 was > 16000 nM (inactive). With `NC(=O)c1c(NC(=O)c2ccco2)sc2c1CCC2` the EC50 was 1060 nM. With `COc1cc2c(cc1NC(=O)c1ccco1)CCCC2` the EC50 was 1060 nM. For `NCC(c1ccc(Cl)cc1Cl)c1c[nH]c2ccccc12` (centres undefined), the EC50 was > 16000 nM (inactive). Work on `CN(C)c1ccc(/C=C/c2ccc3ccccc3[n+]2C)cc1` yielded an EC50 of 370 nM. For `COc1ccc(CCC(=O)N2CC(C)OC(C)C2)cc1` (centres undefined), the EC50 was > 15000 nM (inactive). `CCc1cc(=S)n2c([nH]c3ccccc32)c1C#N` gave an EC50 of 513 nM. With `Cc1ccc(C)c(S(=O)(=O)N2CCN(Cc3ccc(O)c4ncccc34)CC2)c1` the EC50 was 2120 nM. Compound `CCCCCCOC(=O)C[N+](C)(C)CCOC1CC2CCC1(C)C2(C)C` (centres undefined) has an EC50 of 1160 nM. `O=C(NCc1cc([N+](=O)[O-])ccc1O)c1cccnc1Sc1ccccc1Cl` gave an EC50 of 148 nM. With `O=c1c2ccccc2nc(-c2ccc(Cl)cc2Cl)n1O` the EC50 was 1020 nM. In the case of `Cc1ccc(O)c(N=Cc2cc(Cc3ccccc3)cc([N+](=O)[O-])c2O)c1`, the EC50 is reported as 13700 nM. For `O=C(NNC(=S)Nc1cccc(C(F)(F)F)c1)c1ccc(Cl)cc1Cl`, the EC50 was 1970 nM. In the case of `Nc1c2c(nc3sc4c(c13)CCCCC4)CCCCC2`, the EC50 is reported as 5550 nM. `Cn1c(NN=O)nc2ccccc21` was tested, and the EC50 was > 15000 nM (inactive). Compound `CCOc1ccc(C(=O)Nc2ccc(Cc3ccncc3)cc2)cc1Br` has an EC50 of 3640 nM. For `COc1ccc(C2Nc3ccccc3C(=O)N2O)cc1OC` (centres undefined), the EC50 was > 15000 nM (inactive). For `CC(=O)N(O)CCCCCNC(=O)CCC(=O)N(O)CCCCCNC(=O)CCC(=O)N(O)CCCCCN`, the EC50 was 727 nM. `O=C(CCS(=O)(=O)c1ccc(F)cc1)Nc1nc(-c2ccncc2)cs1` gave an EC50 of 1490 nM. `CC(=O)c1c(C)[nH]c(C(=O)Nc2ccc(C)c(C)c2)c1C` showed an EC50 of 3450 nM. For `O=C(c1ccc(Cl)cc1)N1CCN(c2ccnc3cc(Cl)ccc23)CC1`, the EC50 was 863 nM. With `CCn1c(NN=O)nc2ccccc21` the EC50 was 7380 nM. With `COc1cc(C(=O)NC(=S)N(CCc2ccccc2)CCc2ccccc2)cc(OC)c1OC` the EC50 was 1820 nM. In the case of `COc1ccccc1NC1=C(N2CCCCC2)C(=O)c2ccccc2C1=O`, the EC50 is reported as 245 nM. Compound `COc1cc([N+](=O)[O-])cc(/C=N/NC(=O)c2ccc(NC(=O)c3ccc(C)cc3)cc2)c1O` has an EC50 of 2340 nM. `O=C1C2CCN(CC2)C1Cc1ccc(OCCOc2ccccc2)cc1` (centres undefined) was tested, and the EC50 was 1680 nM. Compound `CCSc1nnc(-c2ccc(C)cc2)c2ccccc12` has an EC50 of 193 nM. `O=[N+]([O-])c1nn(-c2ccc(Cl)cc2)n(O)c1=NCc1cccnc1` was tested, and the EC50 was 1830 nM. `CCOc1ccc2c(c1)OC(c1ccc(C)cc1)(C(F)(F)F)NC2=O` (centres undefined) was tested, and the EC50 was > 16000 nM (inactive). `C[n+]1c(-c2ccccc2)c2cc(N)ccc2c2ccc(N)cc21` was tested, and the EC50 was > 16000 nM (inactive). In the case of `NC(=NCCCCCCN=C(N)/N=C(\N)Nc1ccc(Cl)cc1)/N=C(\N)Nc1ccc(Cl)cc1`, the EC50 is reported as 741 nM and 1510 nM and 2130 nM. With `CCOC(=O)c1c(-c2ccccc2)oc2cc(Br)c(O)c(C=O)c12` the EC50 was 1440 nM.
